Assay results reported in patent publication US12486489B2, “Culture medium for testing drug resistance of H.pylori as well as preparation method and use thereof” (priority 2022, dated 2025).
Read-outs that look alike come from different tables or passages of the source.

Key:
H. pylori [1] = test: MIC of laboratory H. pylori strains by micro dilution method; format: cell-based; conditions: Helicobacter pylori
Description: (3) Preparation of bacterial solution: H. pylori grown in logarithmic phase on a solid plate is taken, BHI culture medium is used to prepare a bacterial suspension. The concentration of the bacterial solution is adjusted to 1×10^8 CFU/mL (OD600 is 0.3), diluted 10 times, 100 times, and 1000 times to implement a final concentration of […], for the subsequent use.
(4) Inoculation of bacterial solution: 10 μL of the above bacterial solution for the subsequent use is taken and added to wells the 1-10-th and the 12-th well (bacterial working concentration is 1×10^6 CFU/mL), the 11-th well serves as a non-bacterial control and only sterile water is added. The wells are cultivated for 72 hours to determine the results.

H. pylori [2] = test: Drug resistance testing of laboratory strains on characteristic culture medium (discoloration after 36 hours); format: cell-based, Helicobacter pylori
Description: The characteristic culture media (A, B, C, D, E) are cultivated at a constant temperature of 37° C. for 36 hours in a three gas incubator. The characteristic culture media are removed and placed in a natural environment for 30 minutes to observe whether there are discolorations at the point of the culture medium where the specimen is dropped in. […] Another 100 μL of the specimen is taken and coated on Columbia solid culture medium and cultivated in a three gas incubator at a constant temperature of 37° C. for 3 days to 5 days. The number of colonies on the plate is counted to determine the initial inoculation amount. The micro dilution method is adopted to test the MIC of clinical specimen H. pylori, the test is meaningful only when there is no bacterial growth in the negative control well without bacteria and there is bacterial growth in the positive well with bacteria but without antibiotics. […] The results are recorded and whether the micro dilution method and characteristic culture medium are consistent with each other in evaluating the drug resistance of clinical H. pylori strains is compared. […]
(2) Inoculation of bacterial solution: 10 μL bacterial solution is taken and added dropwise onto a characteristic culture medium with 5 pieces (ABCDE) in total.
(3) Culture: all plates are moved to a three gas incubator and cultivated at 37° C. for 36 hours. After being taken out and placed in a natural environment for 30 minutes, whether the bacteria have resistance is determined based on the discoloration of the characteristic culture medium.

[3] = system: clinical H. pylori strain; test: Drug resistance testing of clinical specimens on characteristic culture medium (discoloration after 36 hours); format: cell-based, Helicobacter pylori
Description: The characteristic culture media (A, B, C, D, E) are cultivated at a constant temperature of 37° C. for 36 hours in a three gas incubator. The characteristic culture media are removed and placed in a natural environment for 30 minutes to observe whether there are discolorations at the point of the culture medium where the specimen is dropped in. […] Another 100 μL of the specimen is taken and coated on Columbia solid culture medium and cultivated in a three gas incubator at a constant temperature of 37° C. for 3 days to 5 days. The number of colonies on the plate is counted to determine the initial inoculation amount. The micro dilution method is adopted to test the MIC of clinical specimen H. pylori, the test is meaningful only when there is no bacterial growth in the negative control well without bacteria and there is bacterial growth in the positive well with bacteria but without antibiotics.
(1) Transfer liquid preparation: after sterilization and cooling, BHI culture medium is added with 10% calf serum, followed by 30% glycerol to prepare H. pylori preservation solution. On this basis, 1% H. pylori selective additive is added to prepare the transfer liquid. 1 mL of transfer solution is taken into a sterile EP tube, and 6-8 sterilized small steel balls are poured into the EP tube for the subsequent use.
(3) Specimen acquisition: a biopsy tissue group is obtained from the gastric antrum and a small curvature side of the gastric body through a gastroscopy biopsy passage and placed into an EP tube (strictly sterile operation). The biopsy tissue is placed on the ice surface and transferred as soon as possible (within 2 hours) to complete the subsequent steps.
(4) Preparation of bacterial solution containing tissue: the EP tube containing tissue is placed in a homogenizer at 300 hz and crushed for 5 minutes, transferred to another EP, centrifuged at 12000 rpm for 2 minutes, the supernatant is discarded, BHI is resuspended to 200 μL, and a bacterial suspension is prepared for the subsequent use.
(5) Inoculation of bacterial solution: 10 μL of bacterial solution is taken and added dropwise to the characteristic culture medium (5 pieces in total). The characteristic culture medium is removed after cultivating in a three gas incubator at 37° C. for 36 hours, and the results are determined after leaving for 30 minutes; another 100 μL is taken and coated onto Colombian culture medium for the traditional bacterial culture.

H. pylori [4] = conditions: bacterial count 1×10^6 CFU/mL; cited from earlier work
[5] = read-out: minimum inhibitory concentration (MIC), strain 159, bacterial count 10^4 CFU/mL
[6] = read-out: minimum inhibitory concentration (MIC), strain 161, bacterial count 10^4 CFU/mL
[7] = read-out: minimum inhibitory concentration (MIC), strain 161, bacterial count 10^6 CFU/mL (first line of the strain)
[8] = read-out: minimum inhibitory concentration (MIC), strain 161, bacterial count 10^6 CFU/mL (second line of the strain)
[9] = read-out: minimum inhibitory concentration (MIC), strain 162, bacterial count 10^4 CFU/mL
[10] = read-out: minimum inhibitory concentration (MIC), strain 162, bacterial count 10^6 CFU/mL (first line of the strain)
[11] = read-out: minimum inhibitory concentration (MIC), strain 162, bacterial count 10^6 CFU/mL (second line of the strain)
[12] = read-out: minimum inhibitory concentration (MIC), strain 163, bacterial count 10^6 CFU/mL (first line of the strain)
[13] = read-out: minimum inhibitory concentration (MIC), strain 163, bacterial count 10^6 CFU/mL (second line of the strain)
[14] = read-out: minimum inhibitory concentration (MIC), strain 286, bacterial count 10^4 CFU/mL
[15] = read-out: minimum inhibitory concentration (MIC), strain 286, bacterial count 10^6 CFU/mL (first line of the strain)
[16] = read-out: minimum inhibitory concentration (MIC), strain 286, bacterial count 10^6 CFU/mL (second line of the strain)
[17] = read-out: minimum inhibitory concentration (MIC), strain 287, bacterial count 10^4 CFU/mL
[18] = read-out: minimum inhibitory concentration (MIC), strain 287, bacterial count 10^6 CFU/mL (first line of the strain)
[19] = read-out: minimum inhibitory concentration (MIC), strain 287, bacterial count 10^6 CFU/mL (second line of the strain)
[20] = read-out: minimum inhibitory concentration (MIC), strain 289, bacterial count 10^4 CFU/mL
[21] = read-out: minimum inhibitory concentration (MIC), strain 289, bacterial count 10^6 CFU/mL (first line of the strain)
[22] = read-out: minimum inhibitory concentration (MIC), strain 289, bacterial count 10^6 CFU/mL (second line of the strain)
[23] = read-out: minimum inhibitory concentration (MIC), strain 290, bacterial count 10^4 CFU/mL
[24] = read-out: minimum inhibitory concentration (MIC), strain 290, bacterial count 10^6 CFU/mL (first line of the strain)
[25] = read-out: minimum inhibitory concentration (MIC), strain 290, bacterial count 10^6 CFU/mL (second line of the strain)
[26] = resistant strains 159, 161, 162, 163, 286, 287, 289, and 290, bacterial count 1×10^6 CFU/mL, read-out: MICs
[27] = strain G27, bacterial count 10^4 CFU/mL, read-out: minimum inhibitory concentration (MIC)
[28] = strain G27, bacterial count 10^6 CFU/mL (first line of the strain), read-out: minimum inhibitory concentration (MIC)
[29] = strain G27, bacterial count 10^6 CFU/mL (second line of the strain), read-out: minimum inhibitory concentration (MIC)

Structure (SMILES): CC[C@H]1OC(=O)[C@H](C)[C@@H](O[C@H]2C[C@@](C)(OC)[C@@H](O)[C@H](C)O2)[C@H](C)[C@@H](O[C@@H]2O[C@H](C)C[C@H](N(C)C)[C@H]2O)[C@](C)(OC)C[C@@H](C)C(=O)[C@H](C)[C@@H](O)[C@]1(C)O [Clarithromycin, clarithromycin]
- MIC (H. pylori [1]; read-out: MICs, standard sensitive strains G27 and 26695, bacterial count 1×10^6 CFU/mL): 0.0312 to 0.0625 µg/mL
- MIC (H. pylori [1]; [5]): 0.0312 µg/mL
- MIC (H. pylori [1]; [6]): 0.5 µg/mL
- MIC (H. pylori [1]; [7]): 2 µg/mL
- MIC (H. pylori [1]; [8]): 1 µg/mL
- MIC (H. pylori [1]; [9]): 1 µg/mL
- MIC (H. pylori [1]; [10]): 8 µg/mL
- MIC (H. pylori [1]; [11]): 4 µg/mL
- MIC (H. pylori [1]; [12]): 0.5 µg/mL
- MIC (H. pylori [1]; [13]): 0.25 µg/mL
- MIC (H. pylori [1]; [14]): 1 µg/mL
- MIC (H. pylori [1]; [15]): 8 µg/mL
- MIC (H. pylori [1]; [16]): 4 µg/mL
- MIC (H. pylori [1]; [17]): 8 µg/mL
- MIC (H. pylori [1]; [18]): 4 µg/mL
- MIC (H. pylori [1]; [19]): 2 µg/mL
- MIC (H. pylori [1]; [20]): 2 µg/mL
- MIC (H. pylori [1]; [21]): 32 µg/mL
- MIC (H. pylori [1]; [22]): 8 µg/mL
- MIC (H. pylori [1]; [23]): 4 µg/mL
- MIC (H. pylori [1]; [24]): 16 µg/mL
- MIC (H. pylori [1]; [25]): 4 µg/mL
- MIC (H. pylori [1]; [26]): 0.0625 to 8 µg/mL
- MIC (H. pylori [1]; strain 159, bacterial count 10^6 CFU/mL (first line of the strain), read-out: minimum inhibitory concentration (MIC)): 0.125 µg/mL
- MIC (H. pylori [1]; strain 159, bacterial count 10^6 CFU/mL (second line of the strain), read-out: minimum inhibitory concentration (MIC)): 0.0625 µg/mL
- MIC (H. pylori [1]; strain 163, bacterial count 10^4 CFU/mL, read-out: minimum inhibitory concentration (MIC)): 0.125 µg/mL
- MIC (H. pylori [1]; strain 26695, bacterial count 10^6 CFU/mL (first line of the strain), read-out: minimum inhibitory concentration (MIC)): 0.125 µg/mL
- MIC (H. pylori [1]; strain 26695, bacterial count 10^6 CFU/mL (second line of the strain), read-out: minimum inhibitory concentration (MIC)): 0.0625 µg/mL
- MIC (H. pylori [1]; [27]): 0.0156 µg/mL
- MIC (H. pylori [1]; [28]): 0.0625 µg/mL
- MIC (H. pylori [1]; [29]): 0.0312 µg/mL
- drug resistance determined by discoloration of characteristic culture medium (H. pylori [2]; strain 159, 1×10^6 CFU/mL): developed resistance
- drug resistance determined by discoloration of characteristic culture medium (H. pylori [2]; strain 286, 1×10^6 CFU/mL): have developed resistance
- drug resistance determined by discoloration of characteristic culture medium (H. pylori [2]; strain 287, 1×10^6 CFU/mL): have developed resistance
- drug resistance determined by discoloration of characteristic culture medium (H. pylori [2]; strain 289, 1×10^6 CFU/mL): have developed resistance
- drug resistance determined by discoloration of characteristic culture medium (H. pylori [2]; strain G27, 1×10^6 CFU/mL): does not develop resistance
- drug resistance determined on characteristic culture medium ([3]; clinical H. pylori strain FY-31): sensitive
- drug resistance determined on characteristic culture medium ([3]; clinical H. pylori strain FY-43): sensitive
- drug resistance determined on characteristic culture medium ([3]; clinical H. pylori strain FY-47): sensitive
- drug resistance determined on characteristic culture medium ([3]; clinical H. pylori strain FY-52): sensitive
- resistance breakpoints of H. pylori according to CLSI guidelines (H. pylori [4]): 2 µg/mL

Structure (SMILES): C[C@H]1COc2c(N3CCN(C)CC3)c(F)cc3c(=O)c(C(=O)O)cn1c23 [Levofloxacin, levofloxacin]
- MIC (H. pylori [1]; [5]): 0.5 µg/mL
- MIC (H. pylori [1]; read-out: minimum inhibitory concentration (MIC), strain 159, bacterial count 10^6 CFU/mL (first line of the strain)): 2 µg/mL
- MIC (H. pylori [1]; read-out: minimum inhibitory concentration (MIC), strain 159, bacterial count 10^6 CFU/mL (second line of the strain)): 1 µg/mL
- MIC (H. pylori [1]; [6]): 1 µg/mL
- MIC (H. pylori [1]; [7]): 2 µg/mL
- MIC (H. pylori [1]; [8]): 2 µg/mL
- MIC (H. pylori [1]; [9]): 2 µg/mL
- MIC (H. pylori [1]; [10]): 8 µg/mL
- MIC (H. pylori [1]; [11]): 4 µg/mL
- MIC (H. pylori [1]; read-out: minimum inhibitory concentration (MIC), strain 163, bacterial count 10^4 CFU/mL): 2 µg/mL
- MIC (H. pylori [1]; [12]): 16 µg/mL
- MIC (H. pylori [1]; [13]): 4 µg/mL
- MIC (H. pylori [1]; [14]): 0.5 µg/mL
- MIC (H. pylori [1]; [15]): 1 µg/mL
- MIC (H. pylori [1]; [16]): 0.5 µg/mL
- MIC (H. pylori [1]; [17]): 1 µg/mL
- MIC (H. pylori [1]; [18]): 4 µg/mL
- MIC (H. pylori [1]; [19]): 2 µg/mL
- MIC (H. pylori [1]; [20]): 2 µg/mL
- MIC (H. pylori [1]; [21]): 8 µg/mL
- MIC (H. pylori [1]; [22]): 4 µg/mL
- MIC (H. pylori [1]; [23]): 16 µg/mL
- MIC (H. pylori [1]; [24]): 32 µg/mL
- MIC (H. pylori [1]; [25]): 32 µg/mL
- MIC (H. pylori [1]; [26]): 0.5 to 32 µg/mL
- MIC (H. pylori [1]; [27]): 0.0312 µg/mL
- MIC (H. pylori [1]; [28]): 0.125 µg/mL
- MIC (H. pylori [1]; [29]): 0.0625 µg/mL
